Assay results published in patent US20040039039A1, “Fungicidal mixtures” (priority 2003, published 2004).

Tested on: Plasmopara viticola
Experiment: Protective activity against Peronospora in grapevines caused by Plasmopara viticola
Type: in vivo
Details: individual active compound, potted vines
Experimental: The active compounds, separately or together, were formulated as a 10% emulsion in a mixture of 63% by weight of cyclohexanone and 27% by weight of emulsifier, and diluted with water to the desired concentration.
Evaluation was carried out by determining the infected leaf areas in percent. These percentages were converted into efficacies. The efficacy (W) was calculated as follows using Abbot's formula: […]
α corresponds to the fungal infection of the treated plants in % and β corresponds to the fungal infection of the untreated (control) plants in % An efficacy of 0 means that the infection level of the treated plants corresponds to that of the untreated control plants; an efficacy of 100 means that the treated plants were not infected.
The expected efficacies of the mixtures of the active compounds were determined using Colby's formula [R. S. Colby, Weeds 15, 20-22 (1967)] and compared with the observed efficacies.
Colby's formula: E=x+y−x·y/100
E expected efficacy, expressed in % of the untreated control, when using the mixture of the active compounds A and B at the concentrations a and b x efficacy, expressed in % of the untreated control, when using active compound A at a concentration a y efficacy, expressed in % of the untreated control, when using active compound B at a concentration b.
Protective Activity Against Peronospora in Grapevines Caused by Plasmopara viticola Leaves of potted vines of the cultivar “Müiller-Thurgau” were sprayed to runoff point with an aqueous preparation of active compound which had been prepared using a stock solution comprising 10% of active compound, 85% of cyclohexanone and 5% of emulsifier. The next day, the undersides of the leaves were inoculated with an aqueous zoospore suspension of Plasmopara viticola. The vines were then placed firstly for 48 hours in a water-vapor-saturated chamber at 24° C. and then for 5 days in a greenhouse at 20-30° C. After this period of time, the plants were again placed in a moist chamber for 16 hours to accelerate the sporangiophore eruption. The extent to which the undersides of the leaves had been infected was then determined visually.

| Compound | Efficacy in % of the untreated control (0.05 ppm in the spray liquor) [%] | Efficacy in % of the untreated control (0.1 ppm in the spray liquor) [%] | Efficacy in % of the untreated control (0.2 ppm in the spray liquor) [%] | Efficacy in % of the untreated control (5 ppm in the spray liquor) [%] | Efficacy in % of the untreated control (10 ppm in the spray liquor) [%] |
| --- | --- | --- | --- | --- | --- |
| Cc1ccc(-c2c(Cl)nc(C#N)n2S(=O)(=O)N(C)C)cc1 [Ia, cyazofamid] | 56 | 78 | 89 | – | – |
| zinc ammoniate ethylenebis(dithiocarbamate) [IIc] | – | – | – | 0 | 11 |
| manganese ethylenebis(dithiocarbamate) (zinc complex) [IIa] | – | – | – | 11 | 72 |
